The results in this text go back to patent publication US10670605B2, “Cysteine reactive probes and uses thereof” (The Scripps Research Institute, priority 2015, dated 2020).

Holding throughout (assay): Competitive isoTOP-ABPP, cell lysates
Holding throughout (type): binding

One assay deals with T1, NCF1 C378 (P14598) (Homo sapiens, UniProt P14598).
T1 sequence (P14598 1-390): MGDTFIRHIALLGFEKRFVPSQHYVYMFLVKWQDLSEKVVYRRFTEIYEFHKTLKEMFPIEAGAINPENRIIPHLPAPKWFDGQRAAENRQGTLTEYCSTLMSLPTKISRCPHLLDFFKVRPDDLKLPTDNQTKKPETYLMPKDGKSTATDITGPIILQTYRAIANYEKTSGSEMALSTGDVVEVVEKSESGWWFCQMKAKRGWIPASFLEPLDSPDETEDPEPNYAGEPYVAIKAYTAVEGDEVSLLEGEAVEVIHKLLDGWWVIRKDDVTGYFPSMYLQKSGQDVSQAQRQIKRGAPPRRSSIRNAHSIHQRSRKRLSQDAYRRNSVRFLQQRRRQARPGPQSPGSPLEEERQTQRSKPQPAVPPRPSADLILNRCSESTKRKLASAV

For the next assay, the target named is IRAK1 C608 (P51617) (Homo sapiens, UniProt P51617). Particulars: for R value (DMSO/fragment) / isoTOP-ABPP ratio, P51617_C608: 500 μM, invitro, ramos; for isoTOP-ABPP ratio (reactivity profile), P51617_C608: 500 μm in-vitro ramos; for isoTOP-ABPP reactivity ratio, P51617_C608 / isoTOP-ABPP reactivity profile ratio, P51617_C608: 500 μm.
The next assay addresses T2, UBE2O C375 (Q9C0C9) (Homo sapiens, UniProt Q9C0C9).
T2 sequence (Q9C0C9 1-1292): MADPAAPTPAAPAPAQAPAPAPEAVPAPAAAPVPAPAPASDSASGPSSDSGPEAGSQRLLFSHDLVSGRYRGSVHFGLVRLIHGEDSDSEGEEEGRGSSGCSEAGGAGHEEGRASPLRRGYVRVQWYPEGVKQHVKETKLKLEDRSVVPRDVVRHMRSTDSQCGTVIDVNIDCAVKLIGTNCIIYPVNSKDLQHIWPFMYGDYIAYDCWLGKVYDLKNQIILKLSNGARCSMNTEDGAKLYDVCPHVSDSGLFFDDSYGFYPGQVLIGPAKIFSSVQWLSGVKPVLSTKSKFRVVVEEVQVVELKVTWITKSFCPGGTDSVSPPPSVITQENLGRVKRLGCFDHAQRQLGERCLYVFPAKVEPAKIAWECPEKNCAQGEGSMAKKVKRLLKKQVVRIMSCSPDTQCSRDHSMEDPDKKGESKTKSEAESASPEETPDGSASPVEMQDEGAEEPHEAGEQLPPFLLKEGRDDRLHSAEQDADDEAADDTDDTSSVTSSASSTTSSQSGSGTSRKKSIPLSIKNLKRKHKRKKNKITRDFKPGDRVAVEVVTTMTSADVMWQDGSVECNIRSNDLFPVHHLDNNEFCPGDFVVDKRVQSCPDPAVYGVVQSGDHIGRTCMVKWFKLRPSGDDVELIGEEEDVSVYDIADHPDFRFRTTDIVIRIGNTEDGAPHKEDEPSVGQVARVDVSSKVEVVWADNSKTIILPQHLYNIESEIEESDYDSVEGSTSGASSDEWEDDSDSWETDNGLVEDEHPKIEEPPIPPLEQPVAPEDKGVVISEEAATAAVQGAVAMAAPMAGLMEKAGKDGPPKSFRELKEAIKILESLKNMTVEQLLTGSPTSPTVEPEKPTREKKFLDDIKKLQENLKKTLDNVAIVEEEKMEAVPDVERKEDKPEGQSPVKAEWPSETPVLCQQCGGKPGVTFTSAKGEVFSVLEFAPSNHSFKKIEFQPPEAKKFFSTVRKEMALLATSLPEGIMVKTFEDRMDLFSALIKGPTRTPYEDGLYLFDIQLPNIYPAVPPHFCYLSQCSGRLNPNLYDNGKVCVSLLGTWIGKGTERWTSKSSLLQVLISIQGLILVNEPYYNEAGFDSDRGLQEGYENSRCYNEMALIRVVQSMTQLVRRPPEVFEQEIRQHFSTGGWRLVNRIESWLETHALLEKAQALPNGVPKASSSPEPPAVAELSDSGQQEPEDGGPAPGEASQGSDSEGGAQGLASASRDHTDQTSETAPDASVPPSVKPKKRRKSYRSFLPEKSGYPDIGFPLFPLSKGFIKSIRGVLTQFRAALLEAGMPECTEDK

Chain of IRAK1 C608 (P51617) (P51617 whole entry, the tested form may be a part): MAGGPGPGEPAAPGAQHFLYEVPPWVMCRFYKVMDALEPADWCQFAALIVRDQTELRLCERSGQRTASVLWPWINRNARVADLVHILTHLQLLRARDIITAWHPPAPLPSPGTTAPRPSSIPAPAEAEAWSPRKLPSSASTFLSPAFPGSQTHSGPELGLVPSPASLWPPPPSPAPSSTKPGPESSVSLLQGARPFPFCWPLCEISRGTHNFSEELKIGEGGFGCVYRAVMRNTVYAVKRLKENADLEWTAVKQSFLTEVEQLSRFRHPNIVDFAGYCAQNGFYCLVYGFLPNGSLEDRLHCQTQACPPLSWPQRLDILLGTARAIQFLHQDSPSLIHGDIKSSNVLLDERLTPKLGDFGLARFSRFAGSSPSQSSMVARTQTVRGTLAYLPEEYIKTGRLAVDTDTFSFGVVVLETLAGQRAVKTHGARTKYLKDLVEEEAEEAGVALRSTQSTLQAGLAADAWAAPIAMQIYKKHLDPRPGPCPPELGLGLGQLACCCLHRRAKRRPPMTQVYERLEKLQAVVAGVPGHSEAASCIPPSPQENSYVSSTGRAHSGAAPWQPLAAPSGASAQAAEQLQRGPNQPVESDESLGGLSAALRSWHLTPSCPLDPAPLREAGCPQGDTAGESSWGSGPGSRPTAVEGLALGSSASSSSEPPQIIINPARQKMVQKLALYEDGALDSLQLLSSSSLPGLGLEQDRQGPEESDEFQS

Take `COc1ccc2c(c1)CCCN2C(=O)CCl` [compound 2]: the “R value (DMSO/fragment)” value at NCF1 C378 (P14598) (500 μM, invitro, ramos) was 4.4; on IRAK1 C608 (P51617) it was 2.5.

As to `O=C(CCl)Nc1cc(C(F)(F)F)cc(C(F)(F)F)c1` [compound 3], the “R value (DMSO/fragment)” value on UBE2O C375 (Q9C0C9) (500 μM, in vitro, MDA-MB-231) is reported as 9.8; on UBE2O C375 (Q9C0C9) (500 μM, invitro, ramos), 4.1; at NCF1 C378 (P14598) (500 μM, invitro, ramos) it was 2.1; on IRAK1 C608 (P51617), 20.0.

As to `COc1ccc(C2CC(c3cccs3)=NN2C(=O)CCl)cc1` (centres unmarked) [compound 4], the “R value (DMSO/fragment)” value on NCF1 C378 (P14598) (250 μM, in vitro, Ramos) is on record as 1.4.

As for `C=CC(=O)N(c1ccccc1)c1ccc(Br)cc1` [compound 5], on NCF1 C378 (P14598) (500 μM, invitro, ramos), the “isoTOP-ABPP ratio, P14598_C378” value worked out at 4.0. For the same molecule, on IRAK1 C608 (P51617), the “isoTOP-ABPP ratio, P51617_C608” value stood at 10.1.

For the molecule `O=C(CCl)N1CCN(S(=O)(=O)c2ccccc2F)CC1` [compound 10], at UBE2O C375 (Q9C0C9) (500 μM, invitro, ramos), the “isoTOP-ABPP ratio, Q9C0C9_C375” value is listed as 0.8. For the same molecule, the “isoTOP-ABPP ratio, P14598_C378” value at NCF1 C378 (P14598) (500 μM, invitro, ramos) amounted to 1.1.

In the case of `Cn1cc(S(=O)(=O)N2CCOCC2)cc1C(=O)NC(=O)CCl` [compound 11], at IRAK1 C608 (P51617), the “isoTOP-ABPP ratio, P51617_C608” value is reported as 1.3.

In the case of `O=C(CCl)NCCc1c[nH]c2ccccc12` [compound 13], on NCF1 C378 (P14598) (500 μM, invitro, ramos), the “isoTOP-ABPP ratio, P14598_C378” value was 0.7.

On to `O=C(CCl)NC12CC3CC(CC(C3)C1)C2` [compound 21], for which the “isoTOP-ABPP ratio (reactivity profile), Q9C0C9_C375” value on UBE2O C375 (Q9C0C9) (500 μm in-vitro ramos) amounted to 2.4.

For the molecule `N#C/C(=C\c1cc(C(F)(F)F)cc(C(F)(F)F)c1)C(N)=O` [compound 23], the “isoTOP-ABPP ratio (reactivity profile), Q9C0C9_C375” value at UBE2O C375 (Q9C0C9) (500 μm in-vitro ramos) is recorded as 1.4. For the same molecule, the “isoTOP-ABPP ratio (reactivity profile), P51617_C608” value at IRAK1 C608 (P51617) is 1.5.

`CC(Br)C(=O)Nc1cc(C(F)(F)F)cc(C(F)(F)F)c1` (centres unmarked) [compound 24]: on IRAK1 C608 (P51617), the “isoTOP-ABPP ratio (reactivity profile), P51617_C608” value is recorded as 1.3.

Regarding `CC(C)CCOCCNC(=O)CCl` [compound 27], the “isoTOP-ABPP ratio (reactivity profile), Q9C0C9_C375” value at UBE2O C375 (Q9C0C9) (500 μm in-vitro ramos_231) stood at 0.7.

On to `CC(C)(C)c1cc(NC(=O)CCl)on1` [compound 32], for which the “isoTOP-ABPP reactivity ratio, P51617_C608” value (“isoTOP-ABPP reactivity ratio” for short) was 2.9 on IRAK1 C608 (P51617) (in-vitro_ramos) and 5.8 on IRAK1 C608 (P51617) (in-vitro_ramos_231).

With `C=CC(=O)Nc1cc(F)c(N2CCN(C(=O)OC(C)(C)C)CC2)c(F)c1` [compound 38], at IRAK1 C608 (P51617) (in-vitro_ramos), the “isoTOP-ABPP reactivity ratio” value was found to be 2.4.

Regarding `Cc1ccc(C=C(C#N)C(=O)NCCN2CCOCC2)cc1` [compound 41], on IRAK1 C608 (P51617) (in-vitro_ramos_231), the “isoTOP-ABPP reactivity ratio” value amounted to 1.1.

Turning to `COc1cc(NC(=O)CCl)cc(OC)c1` [compound 43], the “isoTOP-ABPP reactivity profile ratio, P14598_C378” value on NCF1 C378 (P14598) (500 μm, in-vitro_ramos) is 1.2.

Regarding `O=C(CCl)Nc1cccc2ncccc12` [compound 51], the “isoTOP-ABPP reactivity profile ratio, Q9C0C9_C375” value on UBE2O C375 (Q9C0C9) (500 μm, in-vitro_ramos) is given as 0.8. The “isoTOP-ABPP reactivity profile ratio, P51617_C608” value at IRAK1 C608 (P51617) (in-vitro_ramos) worked out at 1.1.

For `O=C(CCl)Nc1ccc(-c2ccccc2)cc1` [compound 52], the “isoTOP-ABPP reactivity profile ratio, P51617_C608” value on IRAK1 C608 (P51617) (in-vitro_ramos) worked out at 17.6.
